# Assays:
# [1] = target: T1, Dual specificity protein kinase TTK (Homo sapiens, UniProt P33981); test: Inhibition of MPS1 (unknown origin) using biotin-labeled AGAGLARHTDDEMTGYVA as substrate after 90 mins by DELFIA
# T1 sequence (P33981 whole entry): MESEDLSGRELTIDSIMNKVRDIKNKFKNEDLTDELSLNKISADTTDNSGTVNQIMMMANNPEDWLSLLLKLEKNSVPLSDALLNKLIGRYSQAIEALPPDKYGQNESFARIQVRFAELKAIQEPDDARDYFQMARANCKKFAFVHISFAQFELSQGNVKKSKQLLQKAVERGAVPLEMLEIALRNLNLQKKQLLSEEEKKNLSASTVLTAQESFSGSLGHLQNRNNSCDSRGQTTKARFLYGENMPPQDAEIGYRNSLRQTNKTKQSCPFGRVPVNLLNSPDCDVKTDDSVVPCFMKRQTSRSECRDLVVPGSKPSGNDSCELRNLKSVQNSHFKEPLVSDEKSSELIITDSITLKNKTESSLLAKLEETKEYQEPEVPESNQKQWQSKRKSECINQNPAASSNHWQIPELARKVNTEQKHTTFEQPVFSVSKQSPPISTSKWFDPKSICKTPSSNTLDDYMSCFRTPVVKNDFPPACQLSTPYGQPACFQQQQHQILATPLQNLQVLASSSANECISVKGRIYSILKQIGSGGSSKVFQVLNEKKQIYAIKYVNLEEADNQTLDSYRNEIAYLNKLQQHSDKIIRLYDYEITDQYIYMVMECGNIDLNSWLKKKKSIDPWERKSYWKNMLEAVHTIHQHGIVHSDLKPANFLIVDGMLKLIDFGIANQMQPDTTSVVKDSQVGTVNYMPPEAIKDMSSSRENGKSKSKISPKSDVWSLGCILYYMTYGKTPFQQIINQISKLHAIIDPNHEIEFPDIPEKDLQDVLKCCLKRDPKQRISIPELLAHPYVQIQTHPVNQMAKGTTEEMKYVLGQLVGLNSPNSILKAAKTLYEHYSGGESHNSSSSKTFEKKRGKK
# A549 = test: cells; details: Homo sapiens, A549, 72 h
# [2] = target: T1, Dual specificity protein kinase TTK; test: Inhibition of FLAG-tagged MPS1 phosphorylation in human RERF-LC-AI Tet-off cells after 3 hrs; format: cell-based
# [3] = Lipophilicity index, log K of the compound by RP-HPLC analysis; format: physicochemical
# [4] = target: Mitogen-activated protein kinase 8 (Homo sapiens, UniProt P45983); test: Inhibition of JNK1 (unknown origin) using ATF2 as substrate measured after 1 hr by ELISA
# [5] = Apparent permeability across MDCK cells; format: ADME, cell-based, Canis lupus familiaris; details: dog
# [6] = target: T1, Dual specificity protein kinase TTK
# [7] = Volume of distribution at steady state in Sprague-Dawley rat at 0.5 mg/kg, iv by LC-MS/MS analysis; format: ADME, organism-based; set-up: dose 0.5 mg/kg, route intravenous; details: in vivo, read-out: Vdss
# [8] = target: Serine/threonine-protein kinase PLK1 (Homo sapiens, UniProt P53350); test: Inhibition of human PLK1
# [9] = Oral bioavailability in Sprague-Dawley rat at 1 mg/kg by LC-MS/MS analysis; format: ADME, organism-based; details: in vivo
# [10] = AUC in Sprague-Dawley rat at 1 mg/kg, po by LC-MS/MS analysis; format: ADME, organism-based; set-up: dose 1 mg/kg, route oral; details: plasma
# [11] = Cmax in Sprague-Dawley rat at 1 mg/kg, po by LC-MS/MS analysis; format: ADME, organism-based; set-up: dose 1 mg/kg, route oral; details: in vivo
# [12] = Metabolic stability in Sprague-Dawley rat hepatocytes assessed as compound remaining at 2 uM after 1 hr by LC-MS/MS analysis; format: ADME, cell-based, Hepatocyte; details: read-out: Stability
# [13] = Clearance in Sprague-Dawley rat at 0.5 mg/kg, iv by LC-MS/MS analysis; format: ADME, organism-based; set-up: dose 0.5 mg/kg, route intravenous; details: in vivo
# Mitogen-activated protein kinase 8, sequence (P45983 whole entry): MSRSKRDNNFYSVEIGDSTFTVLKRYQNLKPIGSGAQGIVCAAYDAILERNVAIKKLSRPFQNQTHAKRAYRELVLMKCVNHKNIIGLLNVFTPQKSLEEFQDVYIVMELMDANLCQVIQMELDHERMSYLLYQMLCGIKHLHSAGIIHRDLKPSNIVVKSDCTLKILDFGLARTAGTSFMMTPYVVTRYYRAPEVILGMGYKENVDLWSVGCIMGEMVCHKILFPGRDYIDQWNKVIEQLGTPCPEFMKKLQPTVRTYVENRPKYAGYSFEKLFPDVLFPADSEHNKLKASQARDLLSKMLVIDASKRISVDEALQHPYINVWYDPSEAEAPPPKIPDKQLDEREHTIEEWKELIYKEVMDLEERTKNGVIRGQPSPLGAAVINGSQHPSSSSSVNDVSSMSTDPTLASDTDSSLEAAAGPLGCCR
# Serine/threonine-protein kinase PLK1, sequence (P53350 whole entry): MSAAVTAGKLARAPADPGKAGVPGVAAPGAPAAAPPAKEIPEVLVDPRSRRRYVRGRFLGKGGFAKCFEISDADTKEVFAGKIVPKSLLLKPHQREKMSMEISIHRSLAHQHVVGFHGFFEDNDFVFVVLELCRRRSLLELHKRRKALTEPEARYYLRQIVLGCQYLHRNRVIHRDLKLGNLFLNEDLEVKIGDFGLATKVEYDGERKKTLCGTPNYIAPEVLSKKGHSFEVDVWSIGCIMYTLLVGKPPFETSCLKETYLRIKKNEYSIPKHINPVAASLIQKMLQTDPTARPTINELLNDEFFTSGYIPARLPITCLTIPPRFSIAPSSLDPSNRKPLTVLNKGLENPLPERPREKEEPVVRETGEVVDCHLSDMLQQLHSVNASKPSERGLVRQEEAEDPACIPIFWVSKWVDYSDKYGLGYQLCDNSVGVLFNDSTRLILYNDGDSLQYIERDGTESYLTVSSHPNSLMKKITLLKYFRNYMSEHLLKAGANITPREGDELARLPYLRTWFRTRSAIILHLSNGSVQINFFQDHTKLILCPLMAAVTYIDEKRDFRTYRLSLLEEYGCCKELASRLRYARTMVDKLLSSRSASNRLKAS
Compound,IC50 [1] [µM],IC50 (A549) [µM],IC50 [2] [µM],log K [3],IC50 [4] [µM],also measured
CCOc1cc2c(-c3cccc(S(N)(=O)=O)c3)n[nH]c2cc1-c1ccccc1,0.173,> 10,> 10,0.91,1.03,–
Cc1cc(N2CCOCC2)ccc1Nc1nc(NC2CCCCC2)c2nc[nH]c2n1,–,> 10,–,–,–,–
CCOc1ccc2[nH]nc(-c3ccc(NC(C)=O)cc3)c2c1,0.438,–,–,–,0.169,–
CCOc1ccc2[nH]nc(-c3ccccc3)c2c1,0.498,–,–,–,–,–
CCc1cccc(CC)c1NC(=O)c1nn(C)c2c1CCc1cnc(Nc3ccc(C(=O)NC4CCN(C)CC4)cc3OC(F)(F)F)nc1-2,–,1.25,–,–,–,–
Oc1c2ccccc2c2c3c(cccc13)N=N2 [SP-600125],–,–,–,–,–,IC50 [6]: 0.098 µM
CCOc1ccc2[nH]nc(-c3cccc(C(N)=O)c3)c2c1,0.189,–,–,–,0.0428,–
CCOc1cc2c(-c3cccc(S(N)(=O)=O)c3)n[nH]c2cc1C#N,0.017,> 20,3.35,0.86,0.175,–
CCOc1cc2c(-c3cccc(S(N)(=O)=O)c3)n[nH]c2cc1-c1cn[nH]c1,0.00976,> 10,2.07,0.74,0.141,–
Cn1cc(-c2cc3[nH]nc(-c4cccc(S(N)(=O)=O)c4)c3cc2OC2CCCCC2)cn1,0.00793,0.646,0.074,0.93,0.118,–
CCOc1cc2c(-c3cccc(NC(C)=O)c3)n[nH]c2cc1C#N,0.032,6.38,9.72,0.87,0.043,–
c1ccc(-c2[nH]nc3ccccc23)cc1,2.1,–,–,–,–,–
CCOc1cc2c(-c3ccc(C)c(S(N)(=O)=O)c3)n[nH]c2cc1-c1cnn(C)c1,0.00367,0.686,0.198,0.82,0.0435,–

# The next lines start with results.
IC50 [1] [µM],IC50 (A549) [µM],IC50 [2] [µM],log K [3],IC50 [4] [µM],Compound,also measured
0.028,> 20,2.74,0.79,0.15,CCOc1ccc2[nH]nc(-c3cccc(S(N)(=O)=O)c3)c2c1,–
0.00306,1.02,0.0858,0.79,0.0937,CCOc1cc2c(-c3cccc(S(N)(=O)=O)c3)n[nH]c2cc1-c1cnn(C)c1,Papp [5]: 6 nm/s
0.119,6.46,4.11,0.87,0.441,CCOc1cc2c(-c3cccc(S(N)(=O)=O)c3)n[nH]c2cc1-c1cnn(CC(C)C)c1,–
0.0104,0.152,0.0205,0.92,0.037,Cn1cc(-c2cc3[nH]nc(-c4cccc(S(N)(=O)=O)c4)c3cc2NC2CCCCC2)cn1,"Vd [7]: 2.8 L/kg; IC50 [8]: > 5 µM; bioavailability [9]: 2.3%; Papp [5]: 26.9 nm/s; AUC [10]: 0.0115 µg·h/mL; Cmax [11]: 1.4 ng/mL; remaining at 1 h, 2 µM [12]: 69%; clearance [13]: 1.98 L/h/kg"
0.116,–,–,–,0.0795,CCOc1ccc2[nH]nc(-c3cccc(NC(C)=O)c3)c2c1,–
0.012,0.283,0.0304,0.94,0.0121,CC(=O)Nc1cccc(-c2n[nH]c3cc(-c4cnn(C)c4)c(NC4CCCCC4)cc23)c1,"Vd [7]: 1 L/kg; IC50 [8]: > 5 µM; bioavailability [9]: 17%; Papp [5]: 205 nm/s; AUC [10]: 0.149 µg·h/mL; Cmax [11]: 18 ng/mL; remaining at 1 h, 2 µM [12]: 64%; clearance [13]: 1.14 L/h/kg"
